Experimental data from patent US20070178581A1, “Screening method and apparatus for identifying a reactive compound bonding with a target compound” (SHIMADZU CORPORATION, priority 2006, published 2007).

Test system: WGA (wheat germ lectin)
Test: Bonding of reactive compound with WGA, analysed by elution from the size-excluding first dimension column
Assay type: binding
Conditions: 50 mM phosphoric acid buffer pH 6.8/0.8% NaCl, 25° C.
Method: FIGS. 8A and 8B show the results of the analysis of the components eluted in the first dimension column in the example shown in FIG. 5. […] The sample used consisted of WGA (1 mg/mL) for the target compound or protein, and p-nitrophenyl-di-N-acetyl-β-chitobioside (0.1 mg/mL) for the reactive compounds. For the first dimension mobile phase, 50 mM phosphoric acid buffer (pH 6.8)/0.8% NaCl solution was used, which was fed at the rate of 0.05 mL/minute. For the first dimension column 10a, a silica-based size-excluding DIOL column (product of Shimadzu Corporation) of 150 mm in length and 2 mm in internal diameter was used, while setting the column oven temperature at 25° C. In the measurements that produced the chromatogram shown in FIG. 8B, 30 μL of WGA or protein was suctioned by the sample injection nozzle 32a, and then 5 μL of p-nitrophenyl-di-N-acetyl-β-chitobioside was suctioned, followed by the injection of the sample from the sample injection nozzle 32a into the sample injection port 8. In FIGS. 8A and 8B, the peaks indicated by the broken lines are the peaks obtained when p-nitrophenyl-di-N-acetyl-β-chitobioside alone was injected into the sample injection port. The peaks of p-nitrophenyl-di-N-acetyl-β-chitobioside appear in different locations in FIGS. 8A and Bbecause the scale on the horizontal axis differs, but the retention time is identical in both graphs.

CC(=O)N[C@H]1[C@H](Oc2ccc([N+](=O)[O-])cc2)O[C@H](CO)[C@@H](O[C@@H]2O[C@H](CO)[C@@H](O)[C@H](O)[C@H]2NC(C)=O)[C@@H]1O [p-nitrophenyl-di-N-acetyl-β-chitobioside]
bonding state with WGA judged from elution time (FIG. 8B) (reactive compound (5 μL) injected first, then WGA (30 μL), separately, reaction within the size-excluding column): shifted to the location of the elution time for WGA | bonding state with WGA judged from elution time (FIG. 8A) (target and reactive compound mixed beforehand and injected as a reaction solution, WGA 1 mg/mL, compound 0.1 mg/mL): has been dissociated from WGA
